Patent US8598179B2, “Pyrazole-carboxamide derivatives as P2Y12 antagonists” (Sanofi, priority 2007, dated 2013)

Target: T1, human P2Y12 receptor (Homo sapiens, UniProt Q9H244)
T1 construct: expressed in transfected cells; host or cells: CHO cells (membrane preparation)
Test: Human P2Y12 recombinant cell membrane binding assay
Details: competition against 33P 2MeS-ADP; CHO cell membranes with recombinant human P2Y12 receptor
Procedure: The ability of the compounds of the formula I to inhibit the P2Y12 receptor can be assessed by determining the concentration of the compound of the formula I that binds to the human P2Y12 Recombinant Cell Membrane Binding Assay with 33P 2MeS-ADP.
Human P2Y12 Recombinant Cell Membrane Binding Assay
The ability of a test compound to bind to the P2Y12 receptor was evaluated in a recombinant cell membrane binding assay. In this competitive binding assay, the test compound competed against a radiolabeled agonist for binding to the P2Y12 receptor, expressed on the cell membrane. Inhibition of binding of the labeled material was measured and correlated to the amount and potency of the test compound. This binding assay is a modification of the procedure described by Takasaki, J. et. al, Mol. Pharmacol., 2001, Vol. 60, pg. 432.
As source of P2Y12, a membrane preparation was prepared from Chinese Hamster Ovary (CHO) cells with recombinant expression of the human P2Y12 receptor according to standard procedures.
To a 96-well microtiterplate the following were added: a) 24 μl of assay buffer (10 mM HEPES, 138 mM NaCl, […] KCl, 12 mM NaHCO3, 1 mM EDTA-Na, 0.1% BSA, pH 7.4) b) 1 μL compound in DMSO c) 50 μL P2Y12 CHO membrane (20 μg/ml) and after 15 min at RT d) 25 μL of 1.61 nM 33P 2MeS-ADP (Perkin Elmer NEN custom synthesis, specific activity ˜2100Ci/mmol) made in assay buffer.
After 20 min incubation at RT samples were transferred to 96-well microtiter filterplates (Millipore HTS GF/B), pre-wetted for 20 min with 300 μL of stop buffer (10 mM HEPES, 138 mM NaCl pH 7.4) and then filtered through completely with a Millipore plate vacuum. Next, wells were washed four times with 400 μl/well of stop buffer on a plate vacuum. The plate was disassembled and allowed to air dry overnight with the filter side up over night. The filter plates were snapped into adapter plates and 0.1 mL of Microscint 20 Scintillation Fluid (Perkin Elmer #6013621) was added to each well. The top of the filterplate was sealed with plastic plate covers. The sealed filterplate were incubated 2 hours at RT. A Microbeta Scintillation Counter was used to measure counts. The binding of compound is expressed as a % inhibition of specific binding, defined by subtraction of the background with 1 mM ADP.
Compounds were diluted as 10 mM DMSO stocks and tested in a four-point, five-fold dilution series run in triplicate beginning at 10 μM, final concentration. Data were analyzed using a four-parameter curve fit with a fixed minimum and maximum experimentally defined as the average positive and negative controls on each plate. The IC50 data of the above described human P2Y12 recombinant cell membrane binding assay for exemplary compounds of the present invention are shown in table 1.

T1 sequence (Q9H244 whole entry): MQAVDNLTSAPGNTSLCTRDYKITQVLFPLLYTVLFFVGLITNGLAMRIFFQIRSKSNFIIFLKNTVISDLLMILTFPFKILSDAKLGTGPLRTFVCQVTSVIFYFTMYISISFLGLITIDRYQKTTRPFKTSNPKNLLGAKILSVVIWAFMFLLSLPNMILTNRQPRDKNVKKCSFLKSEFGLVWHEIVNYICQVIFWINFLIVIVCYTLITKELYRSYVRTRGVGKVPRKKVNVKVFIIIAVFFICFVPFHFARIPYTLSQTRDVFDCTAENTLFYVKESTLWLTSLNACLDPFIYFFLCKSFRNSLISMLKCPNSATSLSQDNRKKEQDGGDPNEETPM

Compared with CCOC(=O)N1CCN(C(=O)[C@H](CCC(=O)O)NC(=O)c2cc(OC3(C(=O)O)CCC3)n(-c3ccccc3)n2)CC1 [Example 7, 4-((S)-4-Carboxy-2-{[5-(1-carboxy-cyclobutoxy)-1-phenyl-1H-pyrazole-3-carbonyl]-amino}-butyryl)-piperazine-1-carboxylic acid ethyl ester], CCOC(=O)N1CCN(C(=O)[C@H](CC(C(=O)O)C(=O)O)NC(=O)c2cc(OC3(C(=O)OCC)CCC3)n(-c3ccccc3)n2)CC1 [Example 61, 2-[(S)-2-{[5-(1-Ethoxycarbonyl-cyclobutoxy)-1-phenyl-1H-pyrazole-3-carbonyl]-amino}-3-(4-ethoxycarbonyl-piperazin-1-yl)-3-oxo-propyl]-malonic acid] is 1.6-fold lower in IC50: 601 nM for the first, 379 nM for the second.

First: COc1cc(OC)cc(N2CCN(C(=O)[C@H](CCC(=O)O)NC(=O)c3cc(OCC(=O)C(C)(C)C)n(-c4ccccc4)n3)CC2)c1 [Example 105, (S)-5-[4-(3,5-Dimethoxy-phenyl)-piperazin-1-yl]-4-{[5-(3,3-dimethyl-2-oxo-butoxy)-1-phenyl-1H-pyrazole-3-carbonyl]-amino}-5-oxo-pentanoic acid]
Second: CCCCOC(=O)N1CCN(C(=O)[C@H](CCC(=O)O)NC(=O)c2cc(OCC(=O)C(C)(C)C)n(-c3ccccc3)n2)CC1 [Example 147, 4-((S)-4-Carboxy-2-{[5-(3,3-dimethyl-2-oxo-butoxy)-1-phenyl-1H-pyrazole-3-carbonyl]-amino}-butyryl)-piperazine-1-carboxylic acid butyl ester]
The IC50 of the first is 15-fold higher: 1400 nM for the first, 95 nM for the second.

Cc1cc(COc2cc(C(=O)N[C@@H](CCC(=O)O)C(=O)N3CCN(c4cccc(C(F)(F)F)c4)CC3)nn2-c2ccccc2)no1 [Example 120, (S)-4-{[5-(5-Methyl-isoxazol-3-ylmethoxy)-1-phenyl-1H-pyrazole-3-carbonyl]-amino}-5-oxo-5-[4-(3-trifluoromethyl-phenyl)-piperazin-1-yl]-pentanoic acid] and CC(C)(C)C(=O)COc1cc(C(=O)N[C@@H](CCC(=O)O)C(=O)N2CCC(C(=O)c3cccc(Cl)c3)CC2)nn1-c1ccccc1 [Example 127, (S)-5-[4-(3-Chloro-benzoyl)-piperidin-1-yl]-4-{[5-(3,3-dimethyl-2-oxo-butoxy)-1-phenyl-1H-pyrazole-3-carbonyl]-amino}-5-oxo-pentanoic acid] are within 1.5-fold of each other in IC50: 3500 nM for the first, 2800 nM for the second.

Going from CCOC(=O)N1CCN(C(=O)[C@H](CNC(=O)C(=O)O)NC(=O)c2cc(OCC(=O)C(C)(C)C)n(-c3ccccc3)n2)CC1 [Example 134, 4-[(S)-2-{[5-(3,3-Dimethyl-2-oxo-butoxy)-1-phenyl-1H-pyrazole-3-carbonyl]-amino}-3-(oxalyl-amino)-propionyl]-piperazine-1-carboxylic acid ethyl ester] to CCOC(=O)N1CCN(C(=O)[C@H](CC(=O)O)NC(=O)c2cc(OCC(=O)C(C)(C)C)n(-c3ccccc3)n2)CC1 [Example 163, 4-((S)-3-Carboxy-2-{[5-(3,3-dimethyl-2-oxo-butoxy)-1-phenyl-1H-pyrazole-3-carbonyl]-amino}-propionyl)-piperazine-1-carboxylic acid ethyl ester], the IC50 falls from 501 nM to 200 nM (2.5-fold).

First: CCOC(=O)N1CCN(C(=O)[C@H](CNc2c(O)c(=O)c2=O)NC(=O)c2cc(OCC(=O)C(C)(C)C)n(-c3ccccc3)n2)CC1 [Example 136, 4-[(S)-2-{[5-(3,3-Dimethyl-2-oxo-butoxy)-1-phenyl-1H-pyrazole-3-carbonyl]-amino}-3-(2-hydroxy-3,4-dioxo-cyclobut-1-enylamino)-propionyl]-piperazine-1-carboxylic acid ethyl ester]
Second: CC(C)(C)C(=O)COc1cc(C(=O)N[C@@H](CCC(=O)O)C(=O)N2CCN(C(=O)OC3CCC3)CC2)nn1-c1ccccc1 [Example 158, 4-((S)-4-Carboxy-2-{[5-(3,3-dimethyl-2-oxo-butoxy)-1-phenyl-1H-pyrazole-3-carbonyl]-amino}-butyryl)-piperazine-1-carboxylic acid cyclobutyl ester]
The IC50 of the first is 13-fold higher: 3500 nM for the first, 266 nM for the second.
